Experiments:
Phytophthora capsici = experiment: In vitro fungitoxicity of hydrazones with and without copper towards Phytophthora capsici (Example 28, Table 3); format: cell-based; conditions: for % Inhn Plus copper Observed: copper-plus AS medium (CuCl2, 50 μM)
[1] = tested on: Leptosphaeria nodorum (LEPTNO); experiment: In vitro fungitoxicity of hydrazones with and without copper towards Leptosphaeria nodorum (Example 26); format: cell-based; conditions: compound 0.05 μg/mL, 72 h at 25° C.; for inhibition of growth at 0.05 µg/mL: Parastagonospora nodorum, 72 h, read-out: LEPTNO % Inhn. Minus Copper Observed; for LEPTNO % Inhn. Plus Copper Observed: copper-plus medium (CuCl2.2H2O)
Phytophthora infestans = format: in vivo, Phytophthora infestans on tomato; conditions: hydrazone 50 ppm + 50 μM CuCl2.2H2O, applied 24 h before inoculation, assessed 7 days after inoculation, tomato
[2] = Phytophthora capsici, 0.050 μg/mL, copper-minus AS medium, 48 h, read-out: % Inhn Minus copper Observed
[3] = Phytophthora capsici, 0.039 μg/mL, copper-minus AS medium, 48 h, read-out: % Inhn Minus copper Observed

With Cc1ccc(C(=O)N/N=C/c2cc(Br)cc(Br)c2O)c(Br)c1 [Example 229] the “% Inhn Plus copper Observed” value (Phytophthora capsici; 0.050 μg/mL, 48 h) was 89.1%, the inhibition of growth at 0.05 µg/mL (Phytophthora capsici; [2]) was 1.6% and the inhibition of growth at 0.05 µg/mL ([1]; copper-minus medium) was 6%. The “LEPTNO % Inhn. Plus Copper Observed” value [1] was 98.0%, the “TLB % Control” value (Phytophthora infestans) was 70.9% and the melting point was 258 to 261 °C.
In the case of O=C(N/N=C/c1cccc(F)c1O)c1ccccc1 [Example 15], the “% Inhn Plus copper Predicted” value (Phytophthora capsici; 0.039 μg/mL, Colby formula, CuCl2, 50 μM) is reported as 81.2%, the “% Inhn Minus copper Observed” value (Phytophthora capsici; 0.039 μg/mL, copper-minus AS medium, 48 h) is reported as 80.4% and the “% Inhn Plus copper Observed” value (Phytophthora capsici; 0.039 μg/mL, 48 h) is reported as 91.8%. The “LEPTNO % Inhn. Minus Copper Observed” value ([1]; copper-minus medium) was 4.4%, the “LEPTNO % Inhn. Plus Copper Observed” value [1] was 96.6% and the “TLB % Control” value (Phytophthora infestans) was 58.5%. The melting point was 197 to 198 °C.
With O=C(N/N=C/c1cc(Br)cc(Br)c1O)c1cc(Cl)ccc1Br [Example 220] the “% Inhn Plus copper Observed” value (Phytophthora capsici; 0.050 μg/mL, 48 h) was 85.5%, the inhibition of growth at 0.05 µg/mL (Phytophthora capsici; [2]) was 13.4% and the inhibition of growth at 0.05 µg/mL ([1]; copper-minus medium) was 0%. For the same molecule, the “LEPTNO % Inhn. Plus Copper Observed” value [1] was 95.3%, the “TLB % Control” value (Phytophthora infestans) was 89.1% and the melting point was 215 to 218 °C.
In the case of C/C(=N\NC(=O)Cc1ccc(C(F)(F)F)cc1)c1cc(Cl)cc(Cl)c1O [Example 129], the “% Inhn Plus copper Observed” value (Phytophthora capsici; 0.039 μg/mL, 48 h) is reported as 96.3%, the inhibition of growth at 0.039 µg/mL (Phytophthora capsici; [3]) is reported as 10.6% and the inhibition of growth at 0.05 µg/mL ([1]; copper-minus medium) is reported as 5.5%. For the same molecule, the “LEPTNO % Inhn. Plus Copper Observed” value [1] was 97.8%, the “TLB % Control” value (Phytophthora infestans) was 49.0% and the melting point was 207 to 212 °C.
With O=C(N/N=C/c1cc(Cl)cc(Cl)c1O)c1cc(Cl)ccc1Br [Example 219] the “% Inhn Plus copper Observed” value (Phytophthora capsici; 0.050 μg/mL, 48 h) was 90.6%, the inhibition of growth at 0.05 µg/mL (Phytophthora capsici; [2]) was 15.3% and the inhibition of growth at 0.05 µg/mL ([1]; copper-minus medium) was 34.5%. For the same molecule, the “LEPTNO % Inhn. Plus Copper Observed” value [1] was 97.9%, the “TLB % Control” value (Phytophthora infestans) was 68.4% and the melting point was 228 to 231 °C.
With O=C(N/N=C/c1ccccc1O)c1cc(I)ccc1Br [Example 221] the “% Inhn Plus copper Observed” value (Phytophthora capsici; 0.050 μg/mL, 48 h) was 92.2%, the inhibition of growth at 0.05 µg/mL (Phytophthora capsici; [2]) was 12% and the inhibition of growth at 0.05 µg/mL ([1]; copper-minus medium) was 0%. For the same molecule, the “LEPTNO % Inhn. Plus Copper Observed” value [1] was 92.4%, the “TLB % Control” value (Phytophthora infestans) was 66.0% and the melting point was 202 to 205 °C.
With O=C(Cc1ccccc1)N/N=C/c1cc(Br)cc(Br)c1O [Example 124] the “% Inhn Plus copper Observed” value (Phytophthora capsici; 0.039 μg/mL, 48 h) was 89.7%, the inhibition of growth at 0.039 µg/mL (Phytophthora capsici; [3]) was 25% and the inhibition of growth at 0.05 µg/mL ([1]; copper-minus medium) was 0%. For the same molecule, the “LEPTNO % Inhn. Plus Copper Observed” value [1] was 88.2% and the “TLB % Control” value (Phytophthora infestans) was 23.0%.
In the case of C/C(=N\NC(=O)CCc1ccccc1)c1ccccc1O [Example 131], the “% Inhn Plus copper Observed” value (Phytophthora capsici; 0.039 μg/mL, 48 h) is reported as 93.7%, the inhibition of growth at 0.039 µg/mL (Phytophthora capsici; [3]) is reported as 5.6% and the inhibition of growth at 0.05 µg/mL ([1]; copper-minus medium) is reported as 0%. For the same molecule, the “LEPTNO % Inhn. Plus Copper Observed” value [1] was 96.8% and the “TLB % Control” value (Phytophthora infestans) was 62.0%.
With O=C(N/N=C/c1cc(Cl)cc(Cl)c1O)c1ccc2c(c1)OCO2 [Example 6] the “% Inhn Plus copper Observed” value (Phytophthora capsici; 0.039 μg/mL, 48 h) was 95.8%, the inhibition of growth at 0.039 µg/mL (Phytophthora capsici; [3]) was 28.8% and the inhibition of growth at 0.05 µg/mL ([1]; copper-minus medium) was 3.9%. For the same molecule, the “LEPTNO % Inhn. Plus Copper Observed” value [1] was 96.4% and the “TLB % Control” value (Phytophthora infestans) was 88.1%.
With O=C(Cc1ccc(Cl)cc1)N/N=C/c1cc(Cl)cc(Cl)c1O [Example 123] the “% Inhn Plus copper Observed” value (Phytophthora capsici; 0.039 μg/mL, 48 h) was 94.8%, the inhibition of growth at 0.039 µg/mL (Phytophthora capsici; [3]) was 16.3% and the inhibition of growth at 0.05 µg/mL ([1]; copper-minus medium) was 7.5%. For the same molecule, the “LEPTNO % Inhn. Plus Copper Observed” value [1] was 95.5% and the “TLB % Control” value (Phytophthora infestans) was 71.0%.
For COc1ccc(O)c(/C=N/NC(=O)c2ccc(Cl)cc2)c1 [Example 207], the “% Inhn Plus copper Observed” value (Phytophthora capsici; 0.039 μg/mL, 48 h) was 88.9%, the inhibition of growth at 0.039 µg/mL (Phytophthora capsici; [3]) was 0% and the inhibition of growth at 0.05 µg/mL ([1]; copper-minus medium) was 0%. For the same molecule, the “LEPTNO % Inhn. Plus Copper Observed” value [1] was 95.3% and the “TLB % Control” value (Phytophthora infestans) was 52.7%.
In the case of O=C(Cc1ccccc1)N/N=C/c1cc(Cl)cc(Cl)c1O [Example 125], the “% Inhn Plus copper Observed” value (Phytophthora capsici; 0.039 μg/mL, 48 h) is reported as 89.4%, the inhibition of growth at 0.039 µg/mL (Phytophthora capsici; [3]) is reported as 66.6% and the inhibition of growth at 0.05 µg/mL ([1]; copper-minus medium) is reported as 2.4%. The “LEPTNO % Inhn. Plus Copper Observed” value [1] was 94.4% and the “TLB % Control” value (Phytophthora infestans) was 87.0%.
With O=C(N/N=C/c1cc(Cl)cc(Cl)c1O)c1ccc(-c2ccccc2)cc1 [Example 74] the “% Inhn Plus copper Observed” value (Phytophthora capsici; 5 μg/mL, 48 h) was 89.4%, the inhibition of growth at 5 µg/mL (Phytophthora capsici; Phytophthora capsici, 5 μg/mL, copper-minus AS medium, 48 h, read-out: % Inhn Minus copper Observed) was 17.2% and the inhibition of growth at 0.05 µg/mL ([1]; copper-minus medium) was 3%. For the same molecule, the “LEPTNO % Inhn. Plus Copper Observed” value [1] was 95.7% and the “TLB % Control” value (Phytophthora infestans) was 63.6%.
For O=C(N/N=C/c1ccccc1O)c1cccc(Br)c1 [Example 182], the “% Inhn Plus copper Observed” value (Phytophthora capsici; 0.039 μg/mL, 48 h) was 90.9%, the inhibition of growth at 0.039 µg/mL (Phytophthora capsici; [3]) was 25.9% and the inhibition of growth at 0.05 µg/mL ([1]; copper-minus medium) was 0%. For the same molecule, the “LEPTNO % Inhn. Plus Copper Observed” value [1] was 97.6% and the “TLB % Control” value (Phytophthora infestans) was 74.6%.
